Measurements as given in patent publication US20230017532A1 (Hoffmann-La Roche Inc., priority 2018, published 2023).
Counter-ions that a name gives are not always drawn.

Test system: Acinetobacter baumannii ATCC17978
Assay: Antimicrobial susceptibility testing: 90% growth inhibitory concentration (IC90) determination, Iso-Sensitest broth, OD 600 nm
Type: cell-based
Conditions: Acinetobacter baumannii, ATCC17978, 16 h, 90% growth inhibitory concentration, Acinetobacter baumannii ATCC17978, Iso-Sensitest broth, OD 600 nm over 16 h; read-out: ATCC 17978 IC90
In short: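 Growth of bacteria (~5×10^5 CFU/ml, Iso-Sensitest medium, 35±2 °C) was followed by OD at 600 nm at 20-min intervals over 16 h against a 10-point twofold compound series (e.g. 50–0.097 μM final). Concentration giving 90% inhibition in log phase was reported.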

Row | Structure (SMILES) | IC90 [nM]
1 | Cc1cc(Nc2nccn3c(-c4ccc(OC(F)F)cc4)cnc23)ccc1C(=O)NCCOCCOCCOCCN=[N+]=[N-] [Example 139, N-[2-[2-[2-(2-azidoethoxy)ethoxy]ethoxy]ethyl]-4-[[3-[4-(difluoro-methoxy)phenyl]imidazo [1,2-a]pyrazin-8-yl]amino]-2-methylbenzamide] | 1000
2 | CCCCC(=O)NCCOCCNC(=O)c1ccc(Nc2nccn3c(-c4ccc(OC)cc4)cnc23)cc1C [Example 141, 4-[[3-(4-methoxyphenyl)imidazo[1,2-a]pyrazin-8-yl]amino]-2-methyl-N-[2-[2-(pentanoylamino)ethoxy]ethyl] benzamide] | 1000
3 | COc1ccc(-c2cnc3c(Nc4ccc(C(=O)NCCOCCN)c(F)c4)nccn23)cc1 [Example 145, N-[2-(2-aminoethoxy)ethyl]-2-fluoro-4-[[3-(4-methoxyphenyl)imidazo[1,2-a]pyrazin-8-yl]amino] benzamide; hydrochloride] | 1200
4 | Cc1cc(Nc2nccn3c(-c4ccc(OC(F)F)cc4)cnc23)ccc1C(=O)NCCOCCNC(=O)CN(CCO)CCO [Example 146, N-[2-[2-[[2-[bis(2-hydroxyethyl)amino]acetyl]amino]ethoxy]ethyl]-4-[[3-[4-(difluoromethoxy)phenyl]imidazo [1,2-a]pyrazin-8-yl]amino]-2-methylbenzamide] | 1200
5 | COc1ccc(-c2cnc3c(Nc4ccc(C(=O)NCCOCCNC(=O)CO)c(C)c4)nccn23)cc1 [Example 148, N-[2-[2-[(2-hydroxyacetyl)amino]ethoxy]ethyl]-4-[[3-(4-methoxyphenyl)imidazo[1,2-a]pyrazin-8-yl]amino]-2-methylbenzamide] | 1300
6 | Cc1cc(Nc2nccn3c(-c4ccc(OC(F)F)cc4)cnc23)ccc1C(=O)NCCOCCOCCO [Example 149, 4-[[3-[4-(difluoro-methoxy)phenyl]imidazo [1,2-a]pyrazin-8-yl]amino]-N-[2-[2-(2-hydroxyethoxy)ethoxy]ethyl]-2-methylbenzamide] | 1300
7 | COCCOCCOCCNC(=O)c1ccc(Nc2nccn3c(-c4ccc(OC(F)F)cc4)cnc23)cc1C [Example 150, 4-[[3-[4-(difluoro-methoxy)phenyl]imidazo [1,2-a]pyrazin-8-yl]amino]-N-[2-[2-(2-methoxy-ethoxy)ethoxy]ethyl]-2-methylbenzamide] | 1500
8 | Cc1cc(Nc2nccn3c(-c4ccc(OC(F)F)cc4)cnc23)ccc1C(=O)NCCOCCOCCOCCO [Example 152, 4-[[3-[4-(difluoro-methoxy)phenyl]imidazo [1,2-a]pyrazin-8-yl]amino]-N-[2-[2-[2-(2-hydroxyethoxy)ethoxy]ethoxy]ethyl]-2-methylbenzamide] | 1600
9 | Cc1cc(Nc2nccn3c(-c4ccc(OC(F)F)cc4)cnc23)ccc1C(=O)NCCOCCNC(=O)CN1CCNCC1 [Example 153, 4-[[3-[4-(difluoro-methoxy)phenyl]imidazo [1,2-a]pyrazin-8-yl]amino]-2-methyl-N-[2-[2-[(2-piperazin-1-ylacetyl)amino)ethoxy]ethyl] benzamide; hydrochloride] | 2000
10 | Cc1cc(Nc2nccn3c(-c4ccc(OC(F)F)cc4)cnc23)ccc1C(=O)NCCOCCNC(=O)C(N)CCCCN (stereo not shown) [Example 154, N-[2-[2-(2,6-diaminohexanoyl-amino)ethoxy]ethyl]-4-[[3-[4-(difluoromethoxy)phenyl]imidazo [1,2-a]pyrazin-8-yl]amino]-2-methylbenzamide; hydrochloride] | 2200
11 | Cc1cc(Nc2nccn3c(-c4ccc(OC(F)F)cc4)cnc23)ccc1C(=O)NCCOCCOCCOCCOCCO [Example 155, 4-[[3-[4-(difluoro-methoxy)phenyl]imidazo [1,2-a]pyrazin-8-yl]amino]-N-[2-[2-[2-[2-(2-hydroxyethoxy)ethoxy]ethoxy]ethoxy]ethyl]-2-methylbenzamide] | 2300
12 | COC(=O)COCCOCCNC(=O)c1ccc(Nc2nccn3c(-c4ccc(OC(F)F)cc4)cnc23)cc1C [Example 156, methyl 2-[2-[2-[[4-[[3-[4-(difluoro-methoxy)phenyl]imidazo [1,2-a]pyrazin-8-yl]amino]-2-methylbenzoyl]amino]ethoxy]ethoxy]acetate] | 2400
13 | Cc1cc(Nc2nccn3c(-c4ccc(OC(F)F)cc4)cnc23)ccc1C(=O)NCCOCC(=O)NCc1nnn[nH]1 [Example 158, 4-[[3-[4-(difluoro-methoxy)phenyl]imidazo [1,2-a]pyrazin-8-yl]amino]-2-methyl-N-[2-[2-oxo-2-(1H-tetrazol-5-ylmethylamino)ethoxy]ethyl] benzamide] | 8900
14 | CCc1cc(Nc2nccn3c(-c4ccc(Cl)c(F)c4F)cnc23)ccc1C(=O)NCCSCCN [Example 159, N-[2-(2-aminoethyl-sulfanyl)ethyl]-4-[[3-(4-chloro-2,3-difluorophenyl)imidazo[1,2-a]pyrazin-8-yl]amino]-2-ethylbenzamide] | 210
15 | Cc1cc(Nc2nccn3c(-c4ccc(OCC#CCN)c(F)c4F)cnc23)ccc1C(=O)NCCOCCN [Example 160, 4-[[3-[4-(4-aminobut-2-ynoxy)-2,3-difluorophenyl]imidazo[1,2-a]pyrazin-8-yl]amino]-N-[2-(2-aminoethoxy)ethyl]-2-methylbenzamide] | 430
16 | COc1ccc(-c2cnc3c(Nc4ccc(C(=O)NCCOCCN)c(Br)c4)nccn23)c(F)c1F [Example 167, N-[2-(2-aminoethoxy)ethyl]-2-bromo-4-[[3-(2,3-difluoro-4-methoxyphenyl)imidazo[1,2-a]pyrazin-8-yl]amino] benzamide; formic acid] | 52

Second part, the molecule after the results:

Row | IC90 [nM] | Structure (SMILES)
17 | 1000 | COc1ccc(-c2cnc3c(Nc4ccc(C(=O)N(C)CCOCCN5CCN(C=O)CC5)c(C)c4)nccn23)cc1F [Example 140, 4-[[3-(3-fluoro-4-methoxyphenyl)imidazo[1,2-a]pyrazin-8-yl]amino]-N-[2-[2-(4-formylpiperazin-1-yl)ethoxy]ethyl]-N,2-dimethyl-benzamide]
18 | 1200 | Cc1cc(Nc2nccn3c(-c4ccc(OC(F)F)cc4)cnc23)ccc1C(=O)NCCOCCNC(=O)CN1CCN(C)CC1 [Example 143, 4-[[3-[4-(difluoro-methoxy)phenyl]imidazo [1,2-a]pyrazin-8-yl]amino]-2-methyl-N-[2-[2-[[2-(4-methylpiperazin-1-yl)acetyl]amino]ethoxy]ethyl] benzamide]
19 | 1900 | COc1ccc(-c2cnc3c(Nc4ccc(C(=O)N(C)CCN(C)CCO)c(C)c4)nccn23)cc1F [Example 144, 4-[[3-(3-fluoro-4-methoxyphenyl)imidazo[1,2-a]pyrazin-8-yl]amino]-N-[2-[2-hydroxyethyl (methyl)amino]ethyl]-N,2-dimethyl-benzamide]
20 | 1300 | COc1ccc(-c2cnc3c(Nc4ccc(C(=O)NCCOCCn5nccn5)c(C)c4)nccn23)cc1 [Example 147, 4-[[3-(4-methoxyphenyl)imidazo[1,2-a]pyrazin-8-yl]amino]-2-methyl-N-[2-[2-(triazol-2-yl)ethoxy)ethyl] benzamide]
21 | 1600 | COc1ccc(-c2cnc3c(Nc4ccc(C(=O)N(C)CCOCCN5CCN(C6COC6)CC5)c(C)c4)nccn23)cc1F [Example 151, 4-[[3-(3-fluoro-4-methoxyphenyl)imidazo[1,2-a]pyrazin-8-yl]amino]-N,2-dimethyl-N-[2-[2-[4-(oxetan-3-yl)piperazin-1-yl]ethoxy]ethyl] benzamide]
22 | 8100 | COc1ccc(-c2cnc3c(Nc4ccc(C(=O)NCCCOCC(=O)O)c(C)c4)nccn23)cc1F [Example 157, 2-[3-[[4-[[3-(3-fluoro-4-methoxyphenyl)imidazo[1,2-a]pyrazin-8-yl]amino]-2-methylbenzoyl]amino]propoxy] acetic acid]
23 | 350 | CNCCCCNC(=O)c1ccc(Nc2nccn3c(-c4ccc(OC)c(F)c4)cnc23)cc1C [Example 161, 4-[[3-(3-fluoro-4-methoxyphenyl)imidazo[1,2-a]pyrazin-8-yl]amino]-2-methyl-N-[4-(methyl-amino)butyl] benzamide; hydrochloride]
24 | 540 | CN(CCOCCN1CCNCC1)C(=O)c1ccc(Nc2nccn3c(-c4ccc(OC(F)F)cc4)cnc23)cc1Cl [Example 162, 2-chloro-4-[[3-[4-(difluoromethoxy)phenyl]imidazo [1,2-a]pyrazin-8-yl]amino]-N-methyl-N-[2-(2-piperazin-1-yl-ethoxy)ethyl] benzamide; hydrochloride]
25 | 570 | COc1ccc(-c2cnc3c(Nc4ccc(C(=O)N(C)CCOCCN5CCNCC5)c(Cl)c4)nccn23)cc1F [Example 163, 2-chloro-4-[[3-(3-fluoro-4-methoxyphenyl)imidazo[1,2-a]pyrazin-8-yl]amino]-N-methyl-N-[2-(2-piperazin-1-ylethoxy)ethyl] benzamide; hydrochloride]
26 | 970 | Cc1cc(Nc2nccn3c(-c4ccc(OC(F)F)cc4)cnc23)ccc1C(=O)NCCOCCN1CCOC(CN)C1 (stereo not shown) [Example 164, N-[2-[2-[2-(aminomethyl)morpholin-4-yl]ethoxy]ethyl]-4-[[3-[4-(difluoro-methoxy)phenyl]imidazo [1,2-a]pyrazin-8-yl]amino]-2-methylbenzamide; hydrochloride]
27 | 1500 | COc1ccc(-c2cnc3c(Nc4ccc(C(=O)N(CCC#N)CCCCNCCC#N)c(C)c4)nccn23)cc1F [Example 165, N-(2-cyanoethyl)-N-[4-(2-cyanoethyl-amino)butyl]-4-[[3-(3-fluoro-4-methoxyphenyl)imidazo[1,2-a]pyrazin-8-yl]amino]-2-methylbenzamide]
28 | 4700 | COc1ccc(-c2cnc3c(Nc4ccc(C(=O)N(C)CCOCCN5CCNC(C(=O)O)C5)c(C)c4)nccn23)cc1F (stereo not shown) [Example 166, 4-[2-[2-[[4-[[3-(3-fluoro-4-methoxyphenyl)imidazo[1,2-a]pyrazin-8-yl]amino]-2-methylbenzoyl]-methylamino]ethoxy]ethyl]piperazine-2-carboxylic acid; hydrochloride]
